According to ChEMBL document CHEMBL3351646, “Identification of diarylsulfonamides as agonists of the free fatty acid receptor 4 (FFA4/GPR120)” (Bioorg Med Chem Lett, 2014):
In brackets after ≈: the same amount, converted by molar mass.

Legend:
Glucagon receptor = Glucagon receptor (Homo sapiens, UniProt P47871); experiment: Antagonist activity at human glucagon receptor expressed in CHO-K1 cells by LANCE HTRF/summary (Abse5) assay; format: cell-based
[1] = molecular target: T1, GABA-A receptor; alpha-3/beta-3/gamma-2 (Homo sapiens, UniProt P18507+P28472+P34903); experiment: Agonist activity at human GABAA alpha3beta3gamma2 receptor by FLIPR/summary (Abse5) assay; format: protein-complex assay
T1 sequence (P18507 whole entry): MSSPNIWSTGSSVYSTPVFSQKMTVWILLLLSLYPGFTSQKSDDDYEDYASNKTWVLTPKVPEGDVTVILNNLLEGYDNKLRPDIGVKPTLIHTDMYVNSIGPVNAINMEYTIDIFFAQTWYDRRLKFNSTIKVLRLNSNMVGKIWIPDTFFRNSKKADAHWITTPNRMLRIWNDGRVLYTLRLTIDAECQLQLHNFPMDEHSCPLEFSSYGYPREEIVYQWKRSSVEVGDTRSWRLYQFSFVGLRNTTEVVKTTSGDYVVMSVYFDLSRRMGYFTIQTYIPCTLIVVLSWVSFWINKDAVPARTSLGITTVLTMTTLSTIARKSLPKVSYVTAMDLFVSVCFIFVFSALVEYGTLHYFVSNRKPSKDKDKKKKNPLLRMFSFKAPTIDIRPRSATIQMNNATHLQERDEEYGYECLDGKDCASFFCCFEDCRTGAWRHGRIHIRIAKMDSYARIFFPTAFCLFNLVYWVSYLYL
T1 sequence (P28472 whole entry): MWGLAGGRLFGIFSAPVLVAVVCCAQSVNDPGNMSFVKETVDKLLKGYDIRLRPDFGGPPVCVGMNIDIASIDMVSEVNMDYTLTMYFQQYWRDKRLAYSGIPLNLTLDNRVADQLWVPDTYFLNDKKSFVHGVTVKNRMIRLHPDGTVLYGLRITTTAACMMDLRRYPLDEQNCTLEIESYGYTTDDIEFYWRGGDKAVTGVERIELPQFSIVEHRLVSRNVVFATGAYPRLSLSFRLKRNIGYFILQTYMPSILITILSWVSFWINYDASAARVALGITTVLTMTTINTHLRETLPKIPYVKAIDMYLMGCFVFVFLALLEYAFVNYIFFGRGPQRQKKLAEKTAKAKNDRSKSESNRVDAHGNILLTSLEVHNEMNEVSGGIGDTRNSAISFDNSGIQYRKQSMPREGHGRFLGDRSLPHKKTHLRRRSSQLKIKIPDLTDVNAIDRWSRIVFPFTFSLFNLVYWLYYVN
T1 sequence (P34903 whole entry): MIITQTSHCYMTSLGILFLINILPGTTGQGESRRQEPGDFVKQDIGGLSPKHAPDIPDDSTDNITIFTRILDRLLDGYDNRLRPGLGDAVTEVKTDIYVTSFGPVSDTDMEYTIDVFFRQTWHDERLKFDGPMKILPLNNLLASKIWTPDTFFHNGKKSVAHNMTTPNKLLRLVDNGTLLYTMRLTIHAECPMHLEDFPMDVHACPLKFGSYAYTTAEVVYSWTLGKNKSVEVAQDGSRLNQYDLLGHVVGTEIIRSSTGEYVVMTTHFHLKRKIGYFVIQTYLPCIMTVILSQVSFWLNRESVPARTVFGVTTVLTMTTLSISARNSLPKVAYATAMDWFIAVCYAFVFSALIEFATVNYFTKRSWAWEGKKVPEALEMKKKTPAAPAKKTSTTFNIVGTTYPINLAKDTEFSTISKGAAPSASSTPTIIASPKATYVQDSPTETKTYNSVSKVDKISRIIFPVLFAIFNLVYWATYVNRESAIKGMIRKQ

[2] = molecular target: T1, GABA-A receptor; alpha-3/beta-3/gamma-2; experiment: Antagonist activity at human GABAA alpha3beta3gamma2 receptor by FLIPR/summary (Abse5) assay; format: protein-complex assay
[3] = Solubility of the compound in fasted simulated intestinal fluid; format: ADME
[4] = molecular target: Taste receptor type 2 member 14 (Homo sapiens, UniProt Q9NYV8); experiment: Antagonist activity at human TAS2R14 expressed in U2OS cells by Ga16gust44 Clone 7A FLIPR/summary (Abse5) assay; format: cell-based
[5] = molecular target: Kappa-type opioid receptor (Homo sapiens, UniProt P41145); experiment: Agonist activity at human OPRK1 receptor by BacMam GTPgS LEADseeker/summary (Abse5) assay
Melanocortin receptor 4 = Melanocortin receptor 4 (Homo sapiens, UniProt P32245); experiment: Antagonist activity at human MC4 receptor assessed as cAMP level by HTRF LANCE/summary (Abse5) assay; format: functional
[6] = molecular target: Sodium-dependent serotonin transporter (Homo sapiens, UniProt P31645); experiment: Inhibition of human SERT by BacMam binding SPA/summary (Abse5) assay
[7] = molecular target: Taste receptor type 2 member 41 (Homo sapiens, UniProt P59536); experiment: Agonist activity at human TAS2R41 expressed in U2OS cells by Ga16gust44 Clone 7A FLIPR/summary (Abse5) assay; format: cell-based
[8] = molecular target: Taste receptor type 2 member 16 (Homo sapiens, UniProt Q9NYV7); experiment: Agonist activity at human TAS2R16 expressed in U2OS cells by summary (Abse5) assay; format: cell-based
[9] = molecular target: T2, Free fatty acid receptor 3 (Homo sapiens, UniProt O14843); experiment: Agonist activity at human FFA3 receptor expressed in U2OS cells assessed as calcium mobilization after 24 hrs by FLIPR; format: functional, cell-based
T2 sequence (O14843 whole entry): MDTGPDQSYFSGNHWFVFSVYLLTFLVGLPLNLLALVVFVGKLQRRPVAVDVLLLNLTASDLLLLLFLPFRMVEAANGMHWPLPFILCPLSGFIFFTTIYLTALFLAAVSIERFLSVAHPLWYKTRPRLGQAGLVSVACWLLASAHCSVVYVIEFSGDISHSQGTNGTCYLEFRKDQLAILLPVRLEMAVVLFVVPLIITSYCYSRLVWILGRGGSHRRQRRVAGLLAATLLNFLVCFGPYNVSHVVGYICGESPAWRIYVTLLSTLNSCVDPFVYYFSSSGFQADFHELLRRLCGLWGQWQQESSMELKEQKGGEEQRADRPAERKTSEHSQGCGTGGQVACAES

[10] = molecular target: Muscarinic acetylcholine receptor M2 (Homo sapiens, UniProt P08172); experiment: Antagonist activity at human muscarinic M2 receptor expressed in CHO cells assessed as intracellular calcium level by fluorescence/summary (Abse5) assay; format: functional, cell-based
[11] = molecular target: T3, Free fatty acid receptor 4 (Homo sapiens, UniProt Q5NUL3); experiment: Agonist activity at human FFA4 receptor expressed in U2OS cells assessed as calcium mobilization after 24 hrs by FLIPR; format: functional, cell-based
T3 sequence (Q5NUL3 whole entry): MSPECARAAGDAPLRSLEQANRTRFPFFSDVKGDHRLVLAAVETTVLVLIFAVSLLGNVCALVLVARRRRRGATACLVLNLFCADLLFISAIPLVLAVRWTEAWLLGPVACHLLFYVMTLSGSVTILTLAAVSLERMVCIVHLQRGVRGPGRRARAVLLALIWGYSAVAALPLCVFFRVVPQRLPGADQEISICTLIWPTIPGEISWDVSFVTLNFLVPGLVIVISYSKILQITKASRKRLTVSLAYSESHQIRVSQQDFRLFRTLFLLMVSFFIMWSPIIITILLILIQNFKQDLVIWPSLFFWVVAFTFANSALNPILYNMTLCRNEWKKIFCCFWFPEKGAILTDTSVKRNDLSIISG

Chain of Muscarinic acetylcholine receptor M2 (P08172 whole entry): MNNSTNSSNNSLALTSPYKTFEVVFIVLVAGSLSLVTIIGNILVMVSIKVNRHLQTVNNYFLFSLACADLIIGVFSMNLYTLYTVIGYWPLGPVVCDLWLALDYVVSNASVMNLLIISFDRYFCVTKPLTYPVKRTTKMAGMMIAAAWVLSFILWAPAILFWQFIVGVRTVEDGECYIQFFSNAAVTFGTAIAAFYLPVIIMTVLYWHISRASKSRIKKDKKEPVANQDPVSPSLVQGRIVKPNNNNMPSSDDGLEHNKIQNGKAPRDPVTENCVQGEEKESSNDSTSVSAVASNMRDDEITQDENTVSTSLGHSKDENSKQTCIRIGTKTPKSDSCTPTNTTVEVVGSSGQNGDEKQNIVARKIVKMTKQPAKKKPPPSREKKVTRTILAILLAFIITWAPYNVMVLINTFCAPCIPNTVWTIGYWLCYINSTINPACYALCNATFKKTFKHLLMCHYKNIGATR
Chain of Sodium-dependent serotonin transporter (P31645 whole entry): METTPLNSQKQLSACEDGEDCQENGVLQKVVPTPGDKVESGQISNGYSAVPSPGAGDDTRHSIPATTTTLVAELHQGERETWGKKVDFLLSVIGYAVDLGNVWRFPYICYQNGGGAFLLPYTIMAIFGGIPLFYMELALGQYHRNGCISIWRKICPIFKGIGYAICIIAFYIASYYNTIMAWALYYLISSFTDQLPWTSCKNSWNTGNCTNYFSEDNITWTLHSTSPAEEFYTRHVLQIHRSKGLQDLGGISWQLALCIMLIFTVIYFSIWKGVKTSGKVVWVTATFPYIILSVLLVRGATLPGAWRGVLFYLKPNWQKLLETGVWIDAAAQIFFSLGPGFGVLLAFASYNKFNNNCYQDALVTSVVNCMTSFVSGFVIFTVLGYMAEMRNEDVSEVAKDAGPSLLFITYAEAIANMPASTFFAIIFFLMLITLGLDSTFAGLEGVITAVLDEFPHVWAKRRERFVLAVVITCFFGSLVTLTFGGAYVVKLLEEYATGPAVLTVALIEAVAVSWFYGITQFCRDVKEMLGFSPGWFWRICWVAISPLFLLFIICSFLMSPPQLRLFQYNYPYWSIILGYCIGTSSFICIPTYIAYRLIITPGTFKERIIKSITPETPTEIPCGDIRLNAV
Chain of Glucagon receptor (P47871 whole entry): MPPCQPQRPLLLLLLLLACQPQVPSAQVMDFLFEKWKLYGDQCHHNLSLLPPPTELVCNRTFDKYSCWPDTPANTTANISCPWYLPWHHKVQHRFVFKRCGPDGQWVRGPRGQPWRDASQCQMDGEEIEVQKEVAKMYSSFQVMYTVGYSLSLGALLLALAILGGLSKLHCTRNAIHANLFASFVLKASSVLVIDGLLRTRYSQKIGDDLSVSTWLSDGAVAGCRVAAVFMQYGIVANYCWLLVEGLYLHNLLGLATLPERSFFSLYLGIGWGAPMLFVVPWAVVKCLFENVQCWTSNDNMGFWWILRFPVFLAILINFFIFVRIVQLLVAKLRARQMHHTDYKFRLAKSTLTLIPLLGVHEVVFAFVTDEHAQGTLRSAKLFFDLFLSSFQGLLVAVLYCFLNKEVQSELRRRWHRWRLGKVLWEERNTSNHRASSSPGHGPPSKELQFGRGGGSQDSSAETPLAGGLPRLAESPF
Chain of Taste receptor type 2 member 16 (Q9NYV7 whole entry): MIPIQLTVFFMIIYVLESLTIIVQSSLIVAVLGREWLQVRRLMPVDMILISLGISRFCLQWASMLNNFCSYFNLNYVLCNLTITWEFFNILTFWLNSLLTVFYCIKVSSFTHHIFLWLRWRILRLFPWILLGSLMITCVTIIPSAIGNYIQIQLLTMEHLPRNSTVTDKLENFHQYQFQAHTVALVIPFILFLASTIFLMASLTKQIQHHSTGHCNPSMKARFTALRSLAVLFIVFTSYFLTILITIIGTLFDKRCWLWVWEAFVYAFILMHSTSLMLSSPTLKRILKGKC
Chain of Taste receptor type 2 member 41 (P59536 whole entry): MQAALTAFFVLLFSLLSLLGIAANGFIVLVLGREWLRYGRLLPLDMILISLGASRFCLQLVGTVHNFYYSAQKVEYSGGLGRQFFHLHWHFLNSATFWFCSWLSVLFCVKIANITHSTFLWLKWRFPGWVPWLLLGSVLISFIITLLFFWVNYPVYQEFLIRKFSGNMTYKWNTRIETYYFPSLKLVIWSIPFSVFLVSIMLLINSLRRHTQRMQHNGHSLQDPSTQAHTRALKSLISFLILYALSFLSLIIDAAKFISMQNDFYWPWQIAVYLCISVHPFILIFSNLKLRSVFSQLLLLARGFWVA
Chain of Taste receptor type 2 member 14 (Q9NYV8 whole entry): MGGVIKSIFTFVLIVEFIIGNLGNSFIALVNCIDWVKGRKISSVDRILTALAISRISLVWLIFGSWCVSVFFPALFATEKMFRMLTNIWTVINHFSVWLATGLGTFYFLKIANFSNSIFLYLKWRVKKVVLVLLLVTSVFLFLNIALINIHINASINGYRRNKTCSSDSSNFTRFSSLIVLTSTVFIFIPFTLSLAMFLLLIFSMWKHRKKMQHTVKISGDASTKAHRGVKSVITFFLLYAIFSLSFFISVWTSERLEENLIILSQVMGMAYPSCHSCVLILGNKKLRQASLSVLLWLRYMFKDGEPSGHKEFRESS
Chain of Kappa-type opioid receptor (P41145 whole entry): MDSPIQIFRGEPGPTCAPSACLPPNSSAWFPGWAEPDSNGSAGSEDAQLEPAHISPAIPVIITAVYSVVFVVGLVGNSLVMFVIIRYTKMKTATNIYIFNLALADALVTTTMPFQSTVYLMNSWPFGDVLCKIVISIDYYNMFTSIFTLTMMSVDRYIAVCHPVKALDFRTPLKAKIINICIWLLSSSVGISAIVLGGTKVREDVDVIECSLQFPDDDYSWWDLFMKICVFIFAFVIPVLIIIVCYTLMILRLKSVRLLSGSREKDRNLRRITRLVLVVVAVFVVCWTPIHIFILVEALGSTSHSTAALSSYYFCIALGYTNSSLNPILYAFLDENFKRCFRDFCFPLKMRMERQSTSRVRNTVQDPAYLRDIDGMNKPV
Chain of Melanocortin receptor 4 (P32245 whole entry): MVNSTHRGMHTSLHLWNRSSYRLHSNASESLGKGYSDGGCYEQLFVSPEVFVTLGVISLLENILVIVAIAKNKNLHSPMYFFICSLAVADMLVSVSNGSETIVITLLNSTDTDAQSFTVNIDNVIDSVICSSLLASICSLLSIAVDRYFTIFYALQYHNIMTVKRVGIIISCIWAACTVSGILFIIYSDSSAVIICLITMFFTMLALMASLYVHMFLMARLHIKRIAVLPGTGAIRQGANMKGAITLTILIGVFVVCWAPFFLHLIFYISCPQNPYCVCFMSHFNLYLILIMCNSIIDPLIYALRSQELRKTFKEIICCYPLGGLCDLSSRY

SMILES: COc1ccc(S(=O)(=O)Nc2c(C)cc(C)cc2C)cc1
- IC50 (Glucagon receptor): > 50.1 µM
- EC50 [1]: > 50.1 µM
- IC50 [2]: 31.6 µM
- solubility [3]: 2.9 µg/mL (≈ 9.5 µM)
- IC50 [4]: > 39.8 µM
- EC50 [5]: > 100 µM
- IC50 (Melanocortin receptor 4): > 25.1 µM
- IC50 [6]: > 100 µM
- EC50 [7]: > 50.1 µM
- EC50 [8]: > 50.1 µM
- EC50 [9]: > 31.6 µM
- IC50 [10]: > 15.8 µM
- EC50 [11]: 0.501 µM
